How the values were obtained:
synaptosomes = assay: electrically stimulated 3H-acetylcholine release from perfused synaptosomes; assay type: cell-based, rat; settings: for electrically stimulated release of ACh (S2/S1 ratio): 10^-6 M drug during the last 25 minutes of perfusion, electrical field stimulation, FIGS. 2 and 3
Method: Using a different protocol, synaptosomes, which had been previously incubated with ^3 H-choline, as in the first series of experiments, were continually perfused with HEPES-buffered Krebs solution. The release of ACh was effected by subjecting the synaptosomes to electrical field stimulation, which more closely mimics physiological stimulation. […] The results obtained by calculating the ratio of the amounts of ACh released during the two periods of electrical stimulation (the areas under the curves, S2/S1) indicate that both Rb1 and Rg1 increase the electrically stimulated release. In addition, Rg1 stimulates the resting release of ^3 H-ACh, as indicated, by the increase in the resting efflux of ^3 H-ACh when the drug was first added. While the net amount of ^3 H-ACh released in each run can vary, depending on the amount of protein on the filter and aging of the synaptosomes, the S2/S1 ratio remains quite constant from run to run using a given chamber. Therefore, in each experiment the same chamber was used for both control and test-drug runs.

[1] = test system: synaptosomes from whole rat brain; assay: release of 3H-ACh from synaptosomes under low [K] and high [K] conditions; assay type: cell-based; settings: FIG. 1
Method: Pinched off nerve endings (synaptosomes) from whole rat brain were first incubated in the presence of the precursor ^3 H-choline, which is converted intracellularly to ^3 H-ACh. The release of ACh from synaptosomes was quantitated under low [K] and high [K] conditions intended to simulate physiological stimulation.

rat brain synaptosomes = assay: resting and voltage dependent uptake of 45Ca into synaptosomes; assay type: cell-based; settings: compared with depolarized (52.5 K) uptake, FIG. 6
Text: If this compound were acting as a non-specific depolarizing agent, one would predict the resting uptake of ^45 Ca would be stimulated several fold, to the same level as the depolarized (52.5 K) uptake.

| SMILES | electrically stimulated release of ACh (S2/S1 ratio) (synaptosomes) | release of 3H-ACh [1] | resting uptake of 45Ca (rat brain synaptosomes) | resting release (resting efflux) of 3H-ACh (synaptosomes; 10^-6 M drug, when the drug was first added) |
| --- | --- | --- | --- | --- |
| CC(C)=CCC[C@](C)(O[C@@H]1O[C@H](CO[C@@H]2O[C@H](CO)[C@@H](O)[C@H](O)[C@H]2O)[C@@H](O)[C@H](O)[C@H]1O)[C@H]1CC[C@]2(C)[C@@H]1[C@H](O)C[C@@H]1[C@@]3(C)CC[C@H](O[C@@H]4O[C@H](CO)[C@@H](O)[C@H](O)[C@H]4O[C@@H]4O[C@H](CO)[C@@H](O)[C@H](O)[C@H]4O)C(C)(C)[C@@H]3CC[C@]12C [Rb1, ginsenoside Rb1] | increase | increased | only a minimal increase | – |
| CC(C)=CCC[C@](C)(O[C@@H]1O[C@H](CO)[C@@H](O)[C@H](O)[C@H]1O)[C@H]1CC[C@]2(C)[C@@H]1[C@H](O)C[C@@H]1[C@@]3(C)CC[C@H](O)C(C)(C)[C@@H]3[C@@H](O[C@@H]3O[C@H](CO)[C@@H](O)[C@H](O)[C@H]3O)C[C@]12C [Rg1, ginsenoside Rg1] | increase | – | – | stimulates |
